Laboratory results as given in the NIST ThermoML archive (doi:10.1016/j.jct.2015.08.031).

Settings: 101.33 kPa, Crystal, relaxation calorimeter

O[C@H]1[C@H](O)[C@H](O)OC[C@H]1O [β-D-arabinopyranose]
Settings	molar entropy [J/K/mol]
0.5 K	0.0007089
1 K	0.001551
1.5 K	0.002666
2 K	0.004203
2.5 K	0.006327
3 K	0.009226
3.5 K	0.01311
4 K	0.01824
4.5 K	0.02488
5 K	0.03336
5.5 K	0.04406
6 K	0.0574
6.5 K	0.07383
7 K	0.09385
7.5 K	0.118
8 K	0.1468
8.5 K	0.1809
9 K	0.2206
9.5 K	0.2662
10 K	0.3182
11 K	0.4423
12 K	0.5944
13 K	0.7758
14 K	0.9866
15 K	1.227
16 K	1.496
17 K	1.793
18 K	2.116
19 K	2.466
20 K	2.839
25 K	5.013
30 K	7.582
35 K	10.43
40 K	13.47
45 K	16.66
50 K	19.95
55 K	23.28
60 K	26.64
65 K	30
70 K	33.38
75 K	36.77
80 K	40.16
85 K	43.54
90 K	46.93
95 K	50.31
100 K	53.68
110 K	60.41
120 K	67.11
130 K	73.78
140 K	80.41
150 K	87.01
160 K	93.58
170 K	100.12
180 K	106.62
190 K	113.1
200 K	119.55
210 K	125.98
220 K	132.38
230 K	138.76
240 K	145.12
250 K	151.45
260 K	157.77
270 K	164.07
273.15 K	166.06
280 K	170.36
290 K	176.63
298.15 K	181.72
300 K	182.88
